Laboratory results as given in patent US10647679B2, “N-methyl-D-aspartate receptor (NMDAR) potentiators, pharmaceutical compositions, and uses related thereto” (Emory University, priority 2015, dated 2020).
Read-outs that look alike come from different tables or passages of the source.

Tests used:
Format in all cases: cell-based
[1] = target: T1, recombinant rat GluN1/GluN2C (Rattus norvegicus, UniProt Q00961); assay: Two-electrode voltage-clamp (TEVC) recordings in Xenopus laevis oocytes, GluN1/GluN2C; conditions: for GluN2C EC50 (μM)/Max %: Max %: maximum potentiation, response without modulator = 100%; for EC50 (max.) (μM %) GluN2C: fitted maximum response: percentage of the initial glutamate (100 μM) and glycine (30 μM) current
T1 construct: expressed in transfected cells; host or cells: Xenopus laevis oocytes (Ecocyte) injected with in vitro transcribed cRNA
Procedure: (§1) Data are from between 3-26 oocytes from 2-5 frogs for each compound and receptor tested.
(§2) Two-electrode voltage-clamp recordings were performed in Xenopus laevis oocytes (Ecocyte) expressing recombinant rat GluN1/GluN2A, GluN1/GluN2B, GluN1/GluN2C, GluN1/GluN2D. cRNA was transcribed in vitro (Ambion), diluted with nuclease free water, and injected at a ratio of 1:2 GluN1:GluN2 (5-10 ng total cRNA). The oocytes were kept in Barth's solution comprised of (in mM) 88 NaCl, 5 Tris-HCl, 2.4 NaHCO3, 1 KCl, 0.84 MgSO4, 0.41 CaCl2, and 0.33 Ca(NO3)2 at pH 7.4 at 15-17° C. for two to five days before experiments. Oocytes were placed into a perfusion chamber and continually washed with recording solution containing (in mM) 90 NaCl, 1.0 KCl, 0.5 BaCl2, 0.005 EDTA, and 10 HEPES at pH 7.4 (23° C.). Voltage clamp recordings were conducted at a holding potential of −40 mV. All compounds were made as 20 mM stock solutions in DMSO and dissolved to reach the final concentration in recording solution. Final DMSO content was 0.05-0.5% (vol/vol). Some oocytes expressing GluN1/GluN2A were pretreated with […] BAPTA-AM for 10 minutes or injected with […] of 2 mM K-BAPTA to prevent gradual run-up of the current response.

[2] = target: T2, recombinant rat GluN1/GluN2D (Rattus norvegicus, UniProt Q62645); assay: Two-electrode voltage-clamp (TEVC) recordings in Xenopus laevis oocytes, GluN1/GluN2D; conditions: for GluN2D EC50 (μM)/Max %: Max %: maximum potentiation, response without modulator = 100%; for EC50 (max.) (μM %) GluN2D: fitted maximum response: percentage of the initial glutamate (100 μM) and glycine (30 μM) current
T2 construct: expressed in transfected cells; host or cells: Xenopus laevis oocytes (Ecocyte) injected with in vitro transcribed cRNA
Procedure: as §1, §2

[3] = target: T3, recombinant rat GluN1/GluN2B (Rattus norvegicus, UniProt Q00960); assay: Two-electrode voltage-clamp (TEVC) recordings in Xenopus laevis oocytes, GluN1/GluN2B; conditions: for EC50: fitted when potentiation at 30 μM exceeded 120%, Tables 3, 5-7, read-out: EC50 (max.) (μM %) GluN2B: fitted EC50; for GluN2B EC50 (μM)/Max %: Max %: maximum potentiation, response without modulator = 100%; for EC50 (max.) (μM %) GluN2B: fitted maximum response: percentage of the initial glutamate (100 μM) and glycine (30 μM) current
T3 construct: expressed in transfected cells; host or cells: Xenopus laevis oocytes (Ecocyte) injected with in vitro transcribed cRNA
Procedure: as §1, §2

[4] = target: T4, recombinant rat GluN1/GluN2C (Rattus norvegicus, UniProt P35439+Q00961); assay: Two-electrode voltage-clamp (TEVC) recordings in Xenopus laevis oocytes, GluN1/GluN2C; conditions: maximum potentiation, response without modulator = 100%; read-out: GluN2C EC50 (μM)/Max %: Max %
T4 construct: expressed in transfected cells; host or cells: Xenopus laevis oocytes (Ecocyte) injected with in vitro transcribed cRNA
Procedure: as §1, §2

[5] = target: T5, recombinant rat GluN1/GluN2B (Rattus norvegicus, UniProt P35439+Q00960); assay: Two-electrode voltage-clamp (TEVC) recordings in Xenopus laevis oocytes, GluN1/GluN2B
T5 construct: expressed in transfected cells; host or cells: Xenopus laevis oocytes (Ecocyte) injected with in vitro transcribed cRNA
Procedure: as §1, §2

[6] = fitted when potentiation at 30 μM exceeded 120%, Tables 3, 5-7, read-out: EC50 (max.) (μM %) GluN2C: fitted EC50
[7] = fitted when potentiation at 30 μM exceeded 120%, Tables 3, 5-7, read-out: EC50 (max.) (μM %) GluN2D: fitted EC50
[8] = maximum potentiation, response without modulator = 100%, read-out: GluN2B EC50 (μM)/Max %: Max %

T4 sequence (Q00961 20-1237, other chains not shown): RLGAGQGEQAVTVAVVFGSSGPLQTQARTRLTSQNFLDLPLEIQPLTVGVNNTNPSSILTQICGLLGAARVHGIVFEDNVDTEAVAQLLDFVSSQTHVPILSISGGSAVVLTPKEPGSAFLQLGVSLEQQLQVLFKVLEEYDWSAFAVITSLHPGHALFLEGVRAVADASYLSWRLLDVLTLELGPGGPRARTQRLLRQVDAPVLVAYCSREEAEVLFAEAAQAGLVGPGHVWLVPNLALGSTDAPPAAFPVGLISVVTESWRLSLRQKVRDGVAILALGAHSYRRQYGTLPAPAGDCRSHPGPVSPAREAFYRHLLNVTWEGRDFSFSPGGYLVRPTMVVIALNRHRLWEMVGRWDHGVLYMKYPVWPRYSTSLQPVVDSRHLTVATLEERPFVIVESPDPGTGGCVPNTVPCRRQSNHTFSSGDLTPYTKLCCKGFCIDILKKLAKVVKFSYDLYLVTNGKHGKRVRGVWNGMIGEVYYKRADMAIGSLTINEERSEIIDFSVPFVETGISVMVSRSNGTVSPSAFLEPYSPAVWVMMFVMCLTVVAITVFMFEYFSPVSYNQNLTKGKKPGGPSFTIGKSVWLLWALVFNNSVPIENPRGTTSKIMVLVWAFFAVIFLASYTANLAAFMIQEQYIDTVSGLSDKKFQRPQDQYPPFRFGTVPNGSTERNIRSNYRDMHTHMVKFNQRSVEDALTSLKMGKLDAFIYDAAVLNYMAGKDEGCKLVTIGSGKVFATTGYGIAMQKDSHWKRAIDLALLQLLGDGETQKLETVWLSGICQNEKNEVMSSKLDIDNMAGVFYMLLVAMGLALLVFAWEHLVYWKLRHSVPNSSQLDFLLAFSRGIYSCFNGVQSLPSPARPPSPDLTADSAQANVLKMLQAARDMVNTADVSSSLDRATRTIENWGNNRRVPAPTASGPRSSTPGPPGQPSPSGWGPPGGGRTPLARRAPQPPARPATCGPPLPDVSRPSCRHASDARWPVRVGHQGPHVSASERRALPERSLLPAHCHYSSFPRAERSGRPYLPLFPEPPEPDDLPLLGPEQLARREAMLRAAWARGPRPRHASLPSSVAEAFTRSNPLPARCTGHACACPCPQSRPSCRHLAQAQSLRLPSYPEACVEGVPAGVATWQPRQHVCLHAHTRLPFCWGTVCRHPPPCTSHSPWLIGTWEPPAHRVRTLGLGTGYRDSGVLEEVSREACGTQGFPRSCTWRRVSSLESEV
T1 sequence (Q00961 20-1237, other chains not shown): as above
T5 sequence (Q00960 27-1482, other chains not shown): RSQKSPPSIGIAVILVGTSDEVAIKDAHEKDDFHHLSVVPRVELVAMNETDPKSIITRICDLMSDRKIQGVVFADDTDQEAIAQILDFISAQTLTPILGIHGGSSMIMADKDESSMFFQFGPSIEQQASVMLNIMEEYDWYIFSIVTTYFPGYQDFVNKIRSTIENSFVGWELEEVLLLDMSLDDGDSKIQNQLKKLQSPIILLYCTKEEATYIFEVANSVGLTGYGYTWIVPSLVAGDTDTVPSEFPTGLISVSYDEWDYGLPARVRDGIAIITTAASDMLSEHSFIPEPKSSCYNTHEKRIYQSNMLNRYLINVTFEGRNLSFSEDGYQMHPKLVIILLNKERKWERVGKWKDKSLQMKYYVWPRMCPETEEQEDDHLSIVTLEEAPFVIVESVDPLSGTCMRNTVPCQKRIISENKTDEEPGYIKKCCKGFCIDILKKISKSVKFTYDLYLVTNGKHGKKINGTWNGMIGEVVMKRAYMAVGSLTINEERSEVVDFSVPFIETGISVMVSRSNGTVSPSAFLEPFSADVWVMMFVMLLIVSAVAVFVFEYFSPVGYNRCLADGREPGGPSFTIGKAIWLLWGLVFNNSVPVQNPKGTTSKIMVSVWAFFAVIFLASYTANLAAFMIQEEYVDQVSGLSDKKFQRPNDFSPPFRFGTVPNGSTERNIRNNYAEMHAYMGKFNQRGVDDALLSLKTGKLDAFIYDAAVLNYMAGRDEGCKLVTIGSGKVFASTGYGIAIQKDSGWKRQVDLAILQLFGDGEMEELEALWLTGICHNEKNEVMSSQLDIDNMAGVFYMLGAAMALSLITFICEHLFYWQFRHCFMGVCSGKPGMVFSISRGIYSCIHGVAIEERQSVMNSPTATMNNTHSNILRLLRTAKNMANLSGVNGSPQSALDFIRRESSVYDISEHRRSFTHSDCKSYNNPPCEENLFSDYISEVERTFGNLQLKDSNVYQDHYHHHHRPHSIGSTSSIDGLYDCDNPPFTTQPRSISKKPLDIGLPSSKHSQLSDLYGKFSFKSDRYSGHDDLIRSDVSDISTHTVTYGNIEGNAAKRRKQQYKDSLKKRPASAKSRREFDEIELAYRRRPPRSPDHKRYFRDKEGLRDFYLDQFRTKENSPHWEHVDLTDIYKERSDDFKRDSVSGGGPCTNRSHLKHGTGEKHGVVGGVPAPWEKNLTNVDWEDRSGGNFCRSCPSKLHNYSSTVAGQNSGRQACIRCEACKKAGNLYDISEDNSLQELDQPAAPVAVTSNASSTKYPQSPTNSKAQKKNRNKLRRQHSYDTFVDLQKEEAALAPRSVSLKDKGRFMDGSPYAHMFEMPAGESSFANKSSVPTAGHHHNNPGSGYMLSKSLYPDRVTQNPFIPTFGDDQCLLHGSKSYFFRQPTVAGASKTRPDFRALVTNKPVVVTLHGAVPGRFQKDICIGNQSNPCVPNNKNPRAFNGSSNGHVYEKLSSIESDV
T3 sequence (Q00960 27-1482, other chains not shown): as above

## CCOc1ccc(OCC2c3ccc(OC(C)C)cc3CCN2C(=S)c2cccc(F)c2)cc1 (racemic) [1180-154]
[1]; 30 μM compound, Tables 5-7
  I30 μM/Icontrol (mean ± SEM, %) GluN2C: 166%
[1]; [6]
  EC50: 1.4 µM
[1]
  GluN2C EC50 (μM)/Max %: Max %: 191%
  EC50 (max.) (μM %) GluN2C: fitted maximum response: (145%)
[2]; 30 μM compound, Tables 5-7
  I30 μM/Icontrol (mean ± SEM, %) GluN2D: 154%
[2]; [7]
  EC50: 1.2 µM
[2]
  GluN2D EC50 (μM)/Max %: Max %: 159%
  EC50 (max.) (μM %) GluN2D: fitted maximum response: (153%)
[3]; 30 μM compound, Tables 5-7
  I30 μM/Icontrol (mean ± SEM, %) GluN2B: 184%
[3]
  EC50: 0.7 µM
  GluN2B EC50 (μM)/Max %: Max %: 200%
  EC50 (max.) (μM %) GluN2B: fitted maximum response: (190%)

## COc1ccc(OCC2c3cc(OC)c(OC)cc3CCN2C(=S)c2cccc(Br)c2)cc1 (racemic) [1180-157]
[1]
  EC50 & Max Effect: 2C (μM): Inactive
[2]
  EC50 & Max Effect: 2D (μM): Inactive

## COc1ccc(OCC2c3cc(OC)c(OC)cc3CCN2C(=S)c2cccc(Cl)c2)cc1 (racemic) [1180-161]
[1]
  EC50 & Max Effect: 2C (μM): Inactive
[2]
  EC50 & Max Effect: 2D (μM): Inactive

## CCOc1ccc(OCC2c3ccc(OC4CCCC4)cc3CCN2C(=S)c2cccc(F)c2)cc1 (racemic) [1180-162]
[1]
  EC50 & Max Effect: 2C Max (%): 218%
[1]; read-out: EC50 & Max Effect: 2C
  EC50: 0.26 µM
[2]
  EC50 & Max Effect: 2D Max (%): 295%
[2]; read-out: EC50 & Max Effect: 2D
  EC50: 0.39 µM

## COc1ccc(OCC2c3ccc(OC(C)C)cc3CCN2C(=S)c2cccc(Cl)c2)cc1 (racemic) [1180-163]
[1]; 10 μM compound, Table 3
  I10 μM/Icontrol (mean ± SEM, %) GluN2C: 272%
[1]; Tables 11-13
  EC50 & Max Effect: 2C Max (%): 247%
[1]; Tables 11-13, read-out: EC50 & Max Effect: 2C
  EC50: 0.43 µM
[1]; [6]
  EC50: 0.32 µM
[1]
  GluN2C EC50 (μM)/Max %: Max %: 247%
  EC50 (max.) (μM %) GluN2C: fitted maximum response: (273%)
[2]; 10 μM compound, Table 3
  I10 μM/Icontrol (mean ± SEM, %) GluN2D: 231%
[2]; Tables 11-13
  EC50 & Max Effect: 2D Max (%): 249%
[2]; Tables 11-13, read-out: EC50 & Max Effect: 2D
  EC50: 0.43 µM
[2]; [7]
  EC50: 0.14 µM
[2]
  GluN2D EC50 (μM)/Max %: Max %: 249%
  EC50 (max.) (μM %) GluN2D: fitted maximum response: (260%)
[3]; 10 μM compound, Table 3
  I10 μM/Icontrol (mean ± SEM, %) GluN2B: 212%
[3]
  EC50: 0.11 µM
  GluN2B EC50 (μM)/Max %: Max %: 262%
  EC50 (max.) (μM %) GluN2B: fitted maximum response: (228%)

## CCOc1ccc(OCC2c3ccc(OC(C)C)cc3CCN2C(=O)c2cccc(Cl)c2)cc1 (stereo not drawn) [1180-83]
[4]
  Emax: 125%
[5]; [8]
  Emax: 141%

## CCOc1ccc(OCC2c3ccc(OC(C)C)cc3CCN2C(=O)c2cccc(Br)c2)cc1 (stereo not drawn) [1180-86]
[4]
  Emax: 132%
[5]; [8]
  Emax: 138%

## CCOc1ccc(OCC2c3ccc(OC(C)C)cc3CCN2C(=O)c2cccc(C(F)(F)F)c2)cc1 (stereo not drawn) [1180-92]
[5]; fitted when potentiation at 30 μM exceeded 120%, Tables 3, 5-7, read-out: EC50 (max.) (μM %) GluN2B: fitted EC50
  EC50: 2.5 µM
[5]; percentage of the initial glutamate (100 μM) and glycine (30 μM) current, read-out: EC50 (max.) (μM %) GluN2B: fitted maximum response
  Emax: 122%

## CCOc1ccc(OCC2c3ccc(OC(C)C)cc3CCN2C(=S)c2ccc(Cl)c(Cl)c2)cc1 (stereo not drawn) [1180-155]
[4]
  Emax: 169%
[5]; [8]
  Emax: 157%

## CCOc1ccc(OCC2c3ccc(OC(C)C)cc3CCN2S(=O)(=O)c2cccc(Cl)c2)cc1 (stereo not drawn) [1180-199]
[1]; at 10 μM, Table 9
  GluN2C response % at 10 μM: 142% at 10 μM

## CC=CCC(=O)N1CCc2cc(OC)ccc2C1COc1ccc(OC)cc1 (stereo not drawn) [1180-235]
[1]
  GluN2C response % at 30 µM: 184% at 30
[2]
  GluN2D response % at 30 µM: 222% at 30
[3]
  GluN2B response % at 30 µM: 103% at 30

## CCOCC(=O)N1CCc2cc(OC)ccc2C1COc1ccc(OC)cc1 (stereo not drawn) [1180-240]
[1]
  GluN2C response % at 30 µM: 115% at 30
[2]
  GluN2D response % at 30 µM: 114% at 30
[3]
  GluN2B response % at 30 µM: 100% at 30

## COc1ccc(OCC2c3ccc(OC)cc3CCN2C(=O)c2cnc(Cl)s2)cc1 (stereo not drawn) [1180-241]
[1]
  GluN2C response % at 30 µM: 114% at 30
[2]
  GluN2D response % at 30 µM: 131% at 30
[3]
  GluN2B response % at 30 µM: 88% at 30
